# Results published in patent US20250170224A1, “METHODS AND COMPOSITIONS FOR TREATING MICROGLIAL DYSFUNCTION AND IMPROVING METABOLIC DYSFUNCTION” (Ultimate Medicine AG, priority 2021, published 2025).
# Experiment: In vivo intestinal permeability to CML (CML translocated into the circulation after oral gavage, LC-MS)
# Parameters: species or system mouse
# Conditions: young-adult and aged mice, SPF or GF, 4 hours post gavage
# Procedure: Specific pathogen-free (SPF) and germ-free (GF) housed C57BL/6 mice were analyzed at 6-10 weeks of age (young-adult) and 96-104 weeks of age (aged). Mice of the aged group in the nontargeted metabolomics analysis were 17-18 months old. Except for nontargeted metabolomics and microbiota profiling, where only male mice were used, all groups included mice from both sexes. Mice were housed under a 12-hour light/12-hour dark cycle and temperatures of 18-23° C. with 40-60% humidity, with food and water given ad libitum. To avoid cage effects, mice from at least three different cages per experimental group were analyzed. […] Blood was collected retro-orbitally after 4 hours and fluorescence intensity was measured on fluorescence plates using an excitation wavelength of 493 nm and an emission wavelength of 518 nm. […] CML translocated into the circulation was measured by liquid chromatography-mass spectrometry (LC-MS). […]
# Samples were extracted with precooled (−80° C.) extraction solution (80:20 methanol LC-MS grade: Milli-Q H2O). Targeted metabolite quantification by LC-MS was carried out using an Agilent 1290 Infinity II UHPLC system in line with an Agilent 6495 QQQ-MS operating in multiple reaction monitoring (MRM) mode. […] Peak areas were identified based on standards for each metabolite and calculated using MassHunter v.B.08.02 (Agilent). […]
structure (smiles),measurement,value
"N[C@@H](CCCCNCC(=O)O)C(=O)O [CML, N^6-carboxymethyllysine]",translocation of CML into the circulation after oral gavage,highest in aged SPF mice
